Source: US7759101B2, “Ginsenoside glycosidases hydrolyzing ginsenoside sugar moieties and uses thereof” (priority 2000, dated 2010)

Key:
[1] = system: ginsenoside glycosidases from A. niger; test: Hydrolysis of ginsenosides with crude ginsenoside glycosidases from A. niger, products measured by TLC; format: biochemical, Aspergillus niger; details: pH 5, 30° C., 18 hours
Experimental: Aspergillus niger FFCCDL-48 g was cultured in a medium containing 1% ginseng extracts and 3% wheat bran extracts at 30° C. for 54 hours. Cells were removed by centrifugation, after which (NH4)2SO4 powder was added to 2000 ml of the cell-free supernatant with stirring to 65% saturation. The solution was stored overnight at 4° C. and precipitated proteins were collected by centrifugation, resuspended in 80 ml of distilled water and dialyzed against 0.01M acetate buffer pH 5. Insolubles were removed by centrifugation, and the solution was adjusted to 200 ml with 0.01 M acetate buffer pH 5. The crude enzyme solution may be used to hydrolyze ginsenosides or to purify the enzymes.
100 mg each of ginsenosides Rb1, Rb2, Rc and Rd and 10 mg of ginsenoside Rg3 were dissolved in separate tubes containing 10 ml of 0.01M acetate buffer pH 5. 10 ml of the crude enzyme solution obtained in 1.1 was added to each tube and allowed to react at 30° C. for 18 hours. Then 10 ml of n-butanol was added to stop the reactions. The products were measured by thin layer chromatography (TLC) (Silica gel 60-F254, Merck; chloroform:methanol:water 70:30:5).
Experiments were carried out to explore the effects of temperature, pH, metal ions and reaction time on the enzyme reaction, in order to further characterize the enzymes.
100 mg of ginsenoside Rb1 was used in a reaction under the conditions as described in 1.2 and the effect of temperature was shown in Table 2.

[2] = system: ginsenoside glycosidase III; test: Hydrolysis of ginsenoside Rd with ginsenoside glycosidase III (Fraction 18); format: biochemical, Aspergillus niger; details: substrate 0.5%, pH 5.0, 30° C., 18 hours
Experimental: Ginsenoside glycosidase II was purified from the crude enzyme solution obtained in 1.1 by HPLC. Separation column: Bio-Scale Q (BioRad), 2 ml/tube. 1 ml of the crude enzyme solution was loaded on the column, and eluted with solvent A (25 mM Tris-HCl buffer pH 7.4) and solvent B (0.5M NaCl in 20 mM Tris-HCl buffer pH 7.4). Fraction 18 appeared as a single dot when running on a SDS-polyacrylamide gel and thus represented a purified enzyme. The enzyme was designated as ginsenoside glycosidase III. This enzyme can hydrolyze the diglucosyl groups at C-3 of aglycone, converting Rd and Rg3 to C-K and aglycone.
(§1) To observe the differences between the ginsenoside glycosidases of the invention and known exo-cellulases, the ginsenoside glycosidases of the invention were compared with cellulose β-glucosidase (E.C. 3.2.1.21) in two reactions with 0.5% ginsenosides Rb1 or Rd as substrate.

[3] = system: Cellobiose-producing enzyme from Clostridium; test: Comparison: hydrolysis of ginsenosides with cellobiose-producing enzyme; format: biochemical, Clostridium thermocopiriae; details: substrate 0.5%, pH 5.0, 30° C., 18 hours
Description: as §1
An exo-cellulase from Clostridium thermocopiriae (cellobiose-producing enzyme) cleaves cellodextrin to give cellobiose, but cannot hydrolyze diglucosidic bond at C-3 of ginsenoside Rd. So it is completely different from ginsenoside glycosidase III. Therefore, the ginsenoside glycosidases of the invention are enzymes different from known cellulose β-glucosidases and cellobiose-producing enzymes.

**Q.** Which results are given for `CC(C)=CCC[C@](C)(O[C@@H]1O[C@H](CO)[C@@H](O)[C@H](O)[C@H]1O)[C@H]1CC[C@]2(C)[C@@H]1[C@H](O)C[C@@H]1[C@@]3(C)CC[C@H](O[C@@H]4O[C@H](CO)[C@@H](O)[C@H](O)[C@H]4O[C@@H]4O[C@H](CO)[C@@H](O)[C@H](O)[C@H]4O)C(C)(C)[C@@H]3CC[C@]12C` [Rd, ginsenoside Rd]?
**A.** Percentage of C—K in the reaction product [1]: 25%; Percentage of F2 in the reaction product [1]: 50%; Percentage of Rd in the reaction product [1]: 15%; Percentage of Rh2 in the reaction product [1]: 5%; Percentage of aglycone in the reaction product [1]: 5%; Percentage of C—K in the reaction product [2]: 36%; Percentage of Rd in the reaction product [2]: 61%; Percentage of aglycone in the reaction product [2]: 3%; Percentage of Rb1 in the reaction product [3]: 100%
